According to patent publication US8580769B2, “Treatment of obesity, metabolic syndrome, and diabetes with protein kinase C inhibitors” (The United States of America as represented by the …, priority 2011, dated 2013):

Columns and labels:
human hepatocytes = assay: mRNA expression of lipogenic, inflammatory and glucogenic markers in human hepatocytes (RT-PCR); type: cell-based; details: for expression of G6 Pase / expression of PEPCK: hepatocytes of non-diabetic and T2DM humans, inhibitor alone or with insulin; for expression of ACC / expression of FAS / expression of IL-1β / expression of SREBP-1c / expression of TNF-α: hepatocytes of non-diabetic and/or T2DM humans
Experimental: After thawing, the hepatocytes were distributed (approximately 10^6 cells per 100 mm plate) and incubated approximately 16 hours overnight in Dulbecco's minimal essential medium containing 5% fetal calf serum, 100 units/ml sodium-penicillin, 100 μg/ml streptomycin-sulfate, 1 μM insulin and 2 μM dexamethasone. After washing, cells were incubated first for 2 hours in William's E medium (Sigma-Aldrich, St. Louis, Mo., catalog no. W1878) containing GLUTAMAX™ (Gibco/Invitrogen, Carlsbad, Calif.), 100 units/ml sodium-penicillin, 100 μg/ml streptomycin-sulfate, 10 μM insulin, 100 nM dexamethasone, and then for 2 hours in William's E medium containing 100 units/ml sodium penicillin, 100 μg/ml streptomycin-sulfate, 100 nM dexamethasone, 0.25 mg/ml transferrin, 0.25 μg/ml sodium selenite and 10 μM insulin. Cells were then washed and incubated for 3 hours in the same medium, but lacking insulin. Where indicated, an aPKC inhibitor was then added and incubation was continued for 30 min, after which, cells were treated either for 15 min with or without 100 nM insulin for acute signaling studies, […] After incubation, cells were sonicated in homogenizing buffer.
mRNA Measurements: As previously described (Sajan et al., J. Lipid Res. 50:1133-1145, 2009; Sajan et al., Diabetologia 52:1197-1207, 2009; Farese et al., J. Clin. Invest. 117:2289-2301, 2007), tissues were added to TRIZOL® reagent (Invitrogen) and RNA was extracted and purified with the RNEASY® Mini-Kit (Qiagen; Valencia, Calif.) and RNAase-free DNAase set (Qiagen) as per kit instructions, quantified by measuring A260/A280, further checked for purity by electrophoresis on 1.2% agarose gels, and mRNA quantified by quantitative real-time reverse transcriptase-polymerase chain reaction (RT-PCR). Reverse transcription was accomplished with TAQMAN® reverse transcription reagent from Applied Biosystems (Foster City, Calif., USA). mRNAs were measured with a SYBR® Green kit (Applied Biosystems) using the nucleotide primers shown in Table 1.

Akt2 = biological target: T1, Akt2 (Mus musculus, UniProt Q60823); assay: tissue Akt activity in Het-MλKO mice; type: in vivo; details: for Akt activation in adipose tissue / Akt activation in muscle: 7-day treatment s.c. (ATM 60 mg/kg; ICAPP 0.4 mg/kg)
T1 construct: from tissue; host or cells: mouse liver, quadriceps muscle and abdominal adipose tissue
T1 sequence (Q60823 whole entry): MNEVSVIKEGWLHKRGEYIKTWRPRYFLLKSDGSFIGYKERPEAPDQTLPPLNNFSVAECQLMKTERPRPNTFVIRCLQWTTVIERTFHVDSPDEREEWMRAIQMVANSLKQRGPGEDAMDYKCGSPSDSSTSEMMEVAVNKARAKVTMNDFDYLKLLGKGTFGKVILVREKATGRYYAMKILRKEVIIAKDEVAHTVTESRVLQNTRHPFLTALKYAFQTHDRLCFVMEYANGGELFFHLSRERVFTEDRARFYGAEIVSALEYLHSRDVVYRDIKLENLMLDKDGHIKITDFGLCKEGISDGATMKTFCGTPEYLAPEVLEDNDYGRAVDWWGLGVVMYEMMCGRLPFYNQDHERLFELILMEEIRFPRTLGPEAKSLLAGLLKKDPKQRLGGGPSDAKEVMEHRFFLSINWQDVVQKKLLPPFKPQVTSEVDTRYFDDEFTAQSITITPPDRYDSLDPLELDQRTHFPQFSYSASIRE
From the text: In Vivo Mouse Studies: Male wild type (WT) and heterozygous muscle-specific PKC-λ knockout (Het-MλKO) mice were generated as described (Farese et al., J. Clin. Invest. 117:2289-2301, 2007) and used at 6-12 months of age, when the O/MS/T2DM phenotype in MλKO mice is well-developed. Mice were housed in a temperature-controlled environment with alternating 12-hour light and dark cycles, and fed ad libitum with standard chow (Harlan Teklad 20/18 with 5% fat, (10% of calories from fat)). All experimental procedures in mice were approved by the Institutional Animal Care and Use Committees of the Roskamp Institute and the University of South Florida College of Medicine, and the James A. Haley Veterans Administration Medical Center Research and Development Committee, Tampa, Fla.
(ICAPP; prepared by Southern Research, Birmingham, Ala.) at 0.4 mg/kg body weight. On the morning of the eighth day of inhibitor treatment, mice were injected intraperitoneally (IP) with 0.9% saline or saline containing 1 U insulin/kg body weight 15 minutes before sacrifice, an optimal time for studies of insulin stimulation of aPKC and Akt in liver, muscle and adipose tissues (Standaert et al., J. Biol. Chem. 279:24929-24934, 2004; Sajan et al., J. Lipid Res. 50:1133-1145, 2009; Sajan et al., Diabetologia 52:1197-1207, 2009; Farese et al., J. Clin. Invest. 117:2289-2301, 2007). After killing, blood, liver, quadriceps muscle and abdominal adipose tissues were rapidly removed and homogenized in buffer with a POLYTRON® homogenizer.
Tissue and Immunoprecipitate Preparations: As previously described (Standaert et al., J. Biol. Chem. 279:24929-24934, 2004; Sajan et al., J. Lipid Res. 50:1133-1145, 2009; Sajan et al., Diabetologia 52:1197-1207, 2009; Farese et al., J. Clin. Invest. 117:2289-2301, 2007) hepatocytes and tissues from in vivo experiments were homogenized in ice-cold buffer containing 0.25 M sucrose, 20 mM Tris/HCl (pH 7.5), 2 mM EGTA, 2 mM EDTA, 1 mM phenylmethylsulfonyl fluoride (PMSF), 20 μg/ml leupeptin, 10 μg/ml aprotinin, 2 mM Na4P2O7, 2 mM Na3VO4, 2 mM NaF, and 1 μM microcystin. After centrifugation for 10 minutes at 700×g to remove unbroken cells, debris, nuclei, and floating fat, cell lysates were stored at −70° C. After addition of 1% TRITON® X-100, 0.6% Nonidet and 150 mM NaCl, lysates were cleared of insoluble materials by low-speed centrifugation and subsequently immunoprecipitated with antibodies that target: (a) aPKCs (rabbit polyclonal antiserum from Santa Cruz Biotechnologies (Santa Cruz, Calif.) that recognizes C-termini of both PKC-λ and PKC-ζ); and (b) Akt2 (Upstate Cell Signaling/Millipore, Billerica, Mass.). Immunoprecipitates were collected on Sepharose-AG beads (Santa Cruz Biotechnologies).
Akt2 Assay: Akt2 enzyme activity was measured with a kit obtained from Upstate Cell Signaling, as described (Standaert et al., J. Biol. Chem. 279:24929-24934, 2004; Sajan et al., J. Lipid Res. 50:1133-1145, 2009; Sajan et al., Diabetologia 52:1197-1207, 2009; Farese et al., J. Clin. Invest. 117:2289-2301, 2007). In brief, Akt2 was immunoprecipitated from lysates with rabbit polyclonal antibodies, collected on Sepharose-AG beads, and incubated as per kit directions. Akt1/2 activation was also assessed by immunoblotting for phosphorylation of serine-473.

[1] = non-diabetic human hepatocytes, 6 hours, 100 nM insulin, 100 nM ICAP

In the case of `O=C([O-])CC([S][Au])C(=O)[O-]` (centres unmarked) [ATM, aurothiomalate, reference compound], the “expression of G6 Pase” value (human hepatocytes) is reported as “insulin-like, or enhanced insulin, effects”, the “expression of PEPCK” value (human hepatocytes) is reported as “insulin-like, or enhanced insulin, effects” and the “expression of ACC” value (human hepatocytes) is reported as “diminished”. For the same compound, the “expression of FAS” value (human hepatocytes) was “diminished”, the “expression of IL-1β” value (human hepatocytes) was “diminished” and the “expression of SREBP-1c” value (human hepatocytes) was “diminished”. The “expression of TNF-α” value (human hepatocytes) was “diminished”, the “Akt activation in adipose tissue” value (Akt2; Het-MλKO mice) was “increased or trended upward” and the “Akt activation in muscle” value (Akt2; Het-MλKO mice) was “increased or trended upward”. For the same compound, the “Akt activation/activity in liver” value (Akt2; Het-MλKO mice, s.c. once daily (ATM 60 mg/kg; ICAPP 0.4 mg/kg; ICAP 0.5 mg/kg)) was “increased or trended upward”.
`NC(=O)c1ncn([C@@H]2C[C@H](CO)[C@@H](O)[C@H]2O)c1N` [ICAP, 1H-imidazole-4-carboxamide 5-amino-1-[2,3-dihydroxy-4-[hydroxymethyl]cyclopentyl]-[1R-(1α,2β,3β,4α)]] was tested, and the “effects on insulin-provoked aPKC activity and mRNA levels in hepatocytes of diabetic humans” value (human hepatocytes; hepatocytes of diabetic humans) was “Comparable results”, the “insulin-provoked increase in ACC mRNA” value (human hepatocytes; [1]) was “inhibited” and the “insulin-provoked increase in FAS mRNA” value (human hepatocytes; [1]) was “inhibited”. The “insulin-provoked increase in IL-1β mRNA” value (human hepatocytes; [1]) was “inhibited”, the “insulin-provoked increase in SREBP-1c mRNA” value (human hepatocytes; [1]) was “inhibited” and the “insulin-provoked increase in TNF-α mRNA” value (human hepatocytes; [1]) was “inhibited”. The “Hepatic Akt activity” value (Akt2; ICAP-treated Mλ-Het KO mice (n = 12), 0.5 mg/kg body weight/day x 8 days s.c., mean ± SEM) was 1151 ± 226 cpm/immunoppt.
`NC(=O)c1ncn([C@@H]2C[C@H](COP(=O)(O)O)[C@@H](O)[C@H]2O)c1N` [ICAPP, 1H-imidazole-4-carboxamide, 5-amino-1-[2,3-dihydroxy-4-[(phosphonooxy)methyl]cyclopentyl]-[1R-(1α,2β,3β,4α)]] was tested, and the “expression of G6 Pase” value (human hepatocytes) was “insulin-like, or enhanced insulin, effects”, the “expression of PEPCK” value (human hepatocytes) was “insulin-like, or enhanced insulin, effects” and the “expression of ACC” value (human hepatocytes) was “diminished”. For the same compound, the “expression of FAS” value (human hepatocytes) was “diminished”, the “expression of IL-1β” value (human hepatocytes) was “diminished” and the “expression of SREBP-1c” value (human hepatocytes) was “diminished”. For the same compound, the “expression of TNF-α” value (human hepatocytes) was “diminished”, the “Akt activation in adipose tissue” value (Akt2; Het-MλKO mice) was “increased significantly or trended upward” and the “Akt activation in muscle” value (Akt2; Het-MλKO mice) was “increased significantly or trended upward”.
